The source of these data is US7943186B2, “Hydroxycitric acid compositions, pharmaceutical and dietary supplements and food products made therefrom, and methods for their use in reducing body weight” (Interhealth Nutraceuticals, Inc., priority 1997, dated 2011).

One series in a line: Solubility in water. It is filed as physicochemical.
A further series can be described thus: Hygroscopicity. It is filed as physicochemical.
A further series has as its system rats. As to conditions: cited from earlier work.
In the next series the test system is fatty acid synthesis. As to conditions: biological systems, profused organs and intact mammals; cited from earlier work.

SMILES strings stand for the structures.

For the compound `O=C([O-])C[C@@](O)(C(=O)[O-])[C@H](O)C(=O)[O-].O=C([O-])C[C@@](O)(C(=O)[O-])[C@H](O)C(=O)[O-].[Ca+2].[Ca+2].[Ca+2]` [pure calcium salt], the “solubility in water (in words)” value in the series “Solubility in water” is reported as “moderately soluble”. Besides, in the series “Hygroscopicity”, the hygroscopicity result was “minimal hygroscopicity”.
For `O=C([O-])C[C@@](O)(C(=O)[O-])[C@H](O)C(=O)[O-].[K+].[K+].[K+]` [pure potassium salt], in that order: “highly soluble” and “high hygroscopicity”.
For `O=C(O)CC(O)(C(=O)O)C(O)C(=O)O` (stereo not shown) [hydroxycitric acid], in the series with rats, the body weight entry was “significantly reduce the body weight” and the lipid accumulation result is reported as “lower lipid accumulation”. Also, the “inhibition of fatty acid synthesis” value in the series on fatty acid synthesis is recorded as “substantially inhibit fatty acid synthesis”.
